Laboratory results as given in patent US8173428B2, “LNA oligonucleotides and the treatment of cancer” (Santaris Pharma A/S, priority 2004, dated 2012).
Oligonucleotides are written 5' to 3', each unit as a sugar letter and its base; * is a phosphorothioate linkage, no mark a phosphodiester; rarer units and linkages stand in square brackets, end groups in braces. Plain capitals give the bases only. l = locked nucleic acid (LNA); [5mC] = 5-methylcytosine; d = 2'-deoxy (DNA)

How the values were obtained:
human Survivin RNA = assay: Survivin mRNA knockdown in transfected 15PC3 cells by real-time PCR; type: cell-based
Description: Cell culturing and transfections: 15PC3 cells were seeded in 12-well plates and grown for two days at 37° C. (5% CO2) in DMEM supplemented with 10% FBS, Glutamax I and Gentamicin. When the cells were 60-70% confluent, they were transfected in duplicates with different concentrations of oligonucleotides (0.2-25 nM) using Lipofectamine 2000 (10 μg/ml). Transfections were carried out essentially as described by Dean et al. (1994, JBC 269:16416-16424). In short, cells were incubated for 10 min. with Lipofectamine in OptiMEM followed by addition of oligonucleotide to a total volume of 0.5 ml transfection mix per well. […] Cells were then harvested for protein and RNA analysis.
Total RNA was isolated using RNeasy mini kit (Qiagen). Cells were washed with PBS, and Cell Lysis Buffer (RTL, Qiagen) supplemented with 1% mercaptoethanol was added directly to the wells. After a few minutes, the samples were processed according to manufacturer's instructions.
First strand synthesis was performed using OmniScript Reverse Transcriptase kit according to the manufacturer's instructions (Qiagen). For each sample, 0.5 μg total RNA was adjusted to 12 μl and mixed with 0.2 μl poly (dT)12-18 (0.5 μg/μl) (Life Technologies), 2 μl dNTP mix (5 mM each), 2 μl 10× RT buffer, 0.5 μl RNAguard™ RNase Inhibitor (33 units/ml, Amersham) and 1 μl OmniScript Reverse Transcriptase followed by incubation at 37° C. for 60 min. and heat inactivation at 93° C. for 5 min.
(§1) To determine the relative Survivin mRNA level in oligonucleotide treated and untreated cells, the generated cDNA was used in quantitative PCR analysis using an iCycler from BioRad. The cDNA was diluted 5-fold and 8 μl was mixed with 52 μl Taqman probe master mix containing 30 μl Platinum Quantitative PCR SuperMix UDG 2×PCR master mix (Invitrogen), 3 μl 20× Taqman probe and primer mix (forward primer: 5′[…] (SEQ ID NO:29), final 0.9 μM. Reverse primer: 5′[…] (SEQ ID NO:30), final 0.6 μM and taqman probe: FAM-[…]-TAMRA (SEQ ID NO:31), final 0.1 μM) and 19 μl H2O. The 60 μl were dispersed in two wells (96 well plates) with 25 μl in each well. For human Bcl-2 the PCR primers were: […]
The primers and probe were obtained from […] (France). To normalize any variance in sample preparation, the endogenous GAPDH mRNA was quantified using a pre-developed Taqman assay reagent from Applied Biosystems (4310884E) according to manufacturer's Instructions. Two-fold dilutions of cDNA, synthesised from untreated 15PC3 cells (expressing both Survivin and GAPDH), was used to prepare standard curves for the assays. The PCR program was as follows: 50° C. for 2 min., 95° C. for 10 min. followed by 40 cycles of 95° C. 15 sec., 60° C. 1 min. Relative quantities of Survivin mRNA were determined from the calculated threshold cycle using the iCycler IQ Real Time Detection System software.
In accordance with the present invention, a series of oligonucleotides were designed to target different regions of the human Survivin RNA, using published sequences (GenBank accession number NM_001168).
LNA oligonucleotides were evaluated for their potential to knockdown Survivin mRNA in 15PC3 cells. The data are presented as percentage down-regulation relative to mock transfected cells. Transcript steady state was monitored by Real-time PCR and normalised to the GAPDH transcript steady state, see Table 3. Note that all LNA C are 5-methyl-Cytosine.

[1] = test system: Survivin full length, Survivin2B and SurvivinΔex3 mRNA; assay: Survivin splice variant mRNA expression by real-time PCR in 15PC3 cells; type: cell-based, human; settings: 5 nM, normalised to GAPDH, relative to mock
Description: Cell culturing and transfections: 15PC3 cells were seeded in 12-well plates and grown for two days at 37° C. (5% CO2) in DMEM supplemented with 10% FBS, Glutamax I and Gentamicin. When the cells were 60-70% confluent, they were transfected in duplicates with different concentrations of oligonucleotides (0.2-25 nM) using Lipofectamine 2000 (10 μg/ml). Transfections were carried out essentially as described by Dean et al. (1994, JBC 269:16416-16424). In short, cells were incubated for 10 min. with Lipofectamine in OptiMEM followed by addition of oligonucleotide to a total volume of 0.5 ml transfection mix per well. […]
as §1, with “H2O.” for “H2O. The 60 μl were dispersed in two wells (96 well plates) with 25 μl in each well. For human Bcl-2 the PCR primers were:”
The primers and probe were obtained from Proligonucleotide (France). […] Relative quantities of Survivin mRNA were determined from the calculated threshold cycle using the iCycler IQ Real Time Detection System software.

Bcl-2 mRNA = Bcl-2 mRNA expression by real-time PCR in 15PC3 cells; type: cell-based, human
Description: To determine the relative Survivin mRNA level in oligonucleotide treated and untreated cells, the generated cDNA was used in quantitative PCR analysis using an iCycler from BioRad. The cDNA was diluted 5-fold and 8 μl was mixed with 52 μl Taqman probe master mix containing 30 μl Platinum Quantitative PCR SuperMix UDG 2×PCR master mix (Invitrogen), 3 μl 20× Taqman probe and primer mix (forward primer: 5′[…] (SEQ ID NO:29), final 0.9 μM. Reverse primer: 5′[…] (SEQ ID NO:30), final 0.6 μM and taqman probe: FAM-[…]-TAMRA (SEQ ID NO:31), final 0.1 μM) and 19 μl H2O. The 60 μl were dispersed in two wells (96 well plates) with 25 μl in each well. For human Bcl-2 the PCR primers were:
forward primer: 5′ […] 3′ (final concentration in the assay; 0.6 μM) (SEQ ID NO: 32) reverse primer: 5′ […] 3′ (final concentration in the assay; 0.6 μM) (SEQ ID NO: 33) and the PCR probe was: 5′ FAM-[…]-TAMRA 3′ (final concentration in the assay; 0.1 μM) (SEQ ID NO: 34). […]
The primers and probe were obtained from […] (France). To normalize any variance in sample preparation, the endogenous GAPDH mRNA was quantified using a pre-developed Taqman assay reagent from Applied Biosystems (4310884E) according to manufacturer's Instructions. […] Relative quantities of Survivin mRNA were determined from the calculated threshold cycle using the iCycler IQ Real Time Detection System software.

[2] = Survivin mRNA down-regulation relative to mock, normalised to GAPDH, standard deviation in brackets, at least three experiments

5′-^MeCsTs^MeCsAsastscscsastsgsgs^MeCsAsGsc-3′ (l[5mC]*lT*l[5mC]*lA*dA*dT*dC*dC*dA*dT*dG*dG*l[5mC]*lA*lG*dC) [SEQ ID NO. 2]
Survivin mRNA expression (human Survivin RNA; 2 nM combined with 10 nM Taxol, 24 hours and 48 hours, relative to mock (0.1% DMSO)): down-regulated
Survivin mRNA expression (human Survivin RNA; 2 nM, 24 hours and 48 hours, relative to mock (0.1% DMSO)): down-regulated
Survivin mRNA expression (human Survivin RNA; 10 nM, 24 hours, single agent or combined with control oligonucleotides): have effects on Survivin and Bcl-2 expression
IC50 (human Survivin RNA; [2]): 2.9 nM
IC75 [nM] (human Survivin RNA; [2]): 4.8 (0.3) nM
Expression of the 3 isoforms of Survivin mRNA [1]: able to down-regulate all expressed isoforms of human Survivin
Bcl-2 mRNA expression (Bcl-2 mRNA; 10 nM, 24 hours, 15PC3 cells, single agent or combined with control oligonucleotides): have effects on Survivin and Bcl-2 expression
Bcl-2 down-regulation (Bcl-2 mRNA; summary statement, conditions not given): down-regulation of Bcl-2
